Results reported in ChEMBL document CHEMBL1201862, “PubChem BioAssay data set” (2004).
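Following 48 hours of exposure in 96-well plates, responses at five concentrations were used to interpolate endpoints linearly. At the GI50, growth is halved.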 Calls of active or inactive are those of the source. No stated cut-off is given here; in the data, active = GI50 up to about 1.1 µM and inactive = higher.

Legend:
Assay in all cases: DTP human tumour cell line panel, 48 h
[1] = tested on: LOX IMVI
[2] = tested on: IGROV-1
[3] = tested on: SK-MEL-5
[4] = tested on: COLO 205
[5] = tested on: HCT-116
[6] = tested on: LXFL 529
[7] = tested on: SR
[8] = tested on: HT-29
[9] = tested on: U-251
[10] = tested on: SW-620
[11] = tested on: SF-539
[12] = tested on: CAKI-1
[13] = tested on: HOP-18
[14] = tested on: SNB-78
[15] = tested on: Hs-578T
[16] = tested on: MDA-MB-435
[17] = tested on: MCF7
[18] = tested on: BT-549
[19] = tested on: T47D
[20] = tested on: NCI/ADR-RES

Measured: GI50

Nc1c(-c2ccccc2[N+](=O)[O-])nc2ccccn12
inactive: [1] > 100 µM | [2] > 100 µM | [3] > 100 µM | [4] > 100 µM | [5] > 100 µM | [6] > 100 µM | [7] > 100 µM | [8] > 100 µM | [9] > 100 µM | [10] > 100 µM

O=c1n(Cc2ccccc2)c2ccccc2n1CC1CS1 (centres undefined)
inactive: [1] > 100 µM | [2] > 100 µM | [11] > 100 µM | [4] > 100 µM | [5] > 100 µM | [6] > 100 µM | [12] > 100 µM | [7] > 100 µM | [10] > 100 µM

COc1ccc(C2C(Cl)C(=O)N2NC(=O)c2ccc(NC(C)=O)cc2)cc1OC (centres undefined)
inactive: [2] > 100 µM | [11] > 100 µM | [3] > 100 µM | [4] > 100 µM | [5] > 100 µM | [6] > 100 µM | [7] > 100 µM | [8] > 100 µM | [13] > 100 µM | [9] > 100 µM | [10] > 100 µM

CCn1cnnc1-c1nsc2ccccc12
inactive: [1] > 100 µM | [2] > 100 µM | [11] > 100 µM | [3] 83.8 µM | [4] > 100 µM | [5] > 100 µM | [14] > 100 µM | [6] > 100 µM | [7] > 100 µM | [8] > 100 µM | [13] > 100 µM | [9] > 100 µM | [10] > 100 µM

CC1(C)OCC=CCO1
inactive: [1] 50.9 µM | [2] > 100 µM | [11] 67.8 µM | [15] > 100 µM | [3] > 100 µM | [16] > 100 µM | [4] > 100 µM | [5] > 100 µM | [17] 56 µM | [12] > 100 µM | [18] > 100 µM | [8] > 100 µM | [19] > 100 µM | [9] > 100 µM | [10] > 100 µM | [20] > 100 µM
